Measurements reported in patent US20050020658A1, “Selective cyclooxygenase-2 inhibitor patch” (priority 2002, published 2005).

How the values were obtained:
[1] = Skin flux of 10 mM drug solutions in NMP, Franz diffusion cell; type: in vitro ADME, rat; conditions: 10 mM solution in NMP, 1 ml; receptor 10% NMP in phosphate buffer saline pH 7.4; 32° C.; 3 replicates
Experimental: (§1) A 15 mm disk of the membrane was placed on a diffusion cell filled with the receptor fluid and the diffusion cell was maintained at 32° C. A 10 mM solution of each drug in NMP was placed in an amount of 1 ml on the membrane. […] The test was conducted in 3 replicates.

[2] = Solubility of celecoxib and valdecoxib in various solvents at room temperature; type: physicochemical
Experimental: In order to identify candidate solvent systems for patch formulations of selective COX-2 inhibitory drugs of low water solubility, various solvents were tested for solubility of celecoxib and valdecoxib at room temperature.

[3] = In vitro skin permeation of poultice, tape and gel formulations, Franz diffusion cell; type: in vitro ADME, rat
Experimental: as §1, with “replicates. […] The test solutions in this example comprised celecoxib or valdecoxib at a concentration of 1% weight/volume in various solvents. The test was conducted in 3 replicates. A 25 mm disk was punched from each poultice and placed on a Franz diffusion cell. […]” for “replicates.”

[4] = In vitro skin permeation of 1% drug solutions, Franz diffusion cell; type: in vitro ADME, rat
Experimental: A 15 mm disk of the membrane was placed on a diffusion cell filled with the receptor fluid and the diffusion cell was maintained at 32° C. A 10 mM solution of each drug in NMP was placed in an amount of 1 ml on the membrane. The amount of drug that had permeated through the membrane by various times in an 8-10 hour period was determined by HPLC analysis of the receptor fluid. The test was conducted in 3 replicates. […] The test solutions in this example comprised celecoxib or valdecoxib at a concentration of 1% weight/volume in various solvents. The test was conducted in 3 replicates. […] The test solutions in this example comprised celecoxib or valdecoxib at a concentration of 1% weight/volume in NMP, with or without oleic acid at 1% weight/volume. The test was conducted in 3 replicates.

[5] = Solubility of valdecoxib in NMP/PEG 400 mixtures at room temperature; type: physicochemical
Experimental: Solubility was determined by preparing a saturated solution of valdecoxib in the test solvent system at 80° C. and cooling this solution for 24 hours at room temperature.

[6] = in 1,3-butylene glycol, room temperature
[7] = in crotamiton, room temperature
[8] = in diethyl sebacate, room temperature
[9] = in dipropylene glycol, room temperature
[10] = in propylene glycol, room temperature
[11] = 0.5% poultice (crotamiton/PEG 400 solvents), 25 mm disk

skin flux [1] [nmol/cm^2 · h] | solubility [2, 6] [mg/g] | solubility ([2]; in DIA, room temperature) [mg/g] | solubility ([2]; in NMP, room temperature) [mg/g] | solubility ([2]; in PEG 400, room temperature) [mg/g] | solubility [2, 7] [mg/g] | solubility [2, 8] [mg/g] | solubility [2, 9] [mg/g] | solubility [2, 10] [mg/g] | skin flux [3, 11] [μg/cm^2 · h] | skin flux ([3]; 1.0% gel (70% ethanol), 200 mg) [μg/cm^2 · h] | skin flux ([4]; 1% weight/volume in NMP) [μg/cm^2 · h] | skin flux ([4]; 1% weight/volume in PEG 400) | skin flux ([4]; 1% weight/volume in crotamiton) | SMILES | also measured
1.6 | 20 | 94 | 219 | 340 | 306 | 77 | 44 | 28 | 0.008 | 0.039 | 0.15 | not detectable | not detectable | Cc1ccc(-c2cc(C(F)(F)F)nn2-c2ccc(S(N)(=O)=O)cc2)cc1 [celecoxib, 4-[5-(4-methylphenyl)-3-(trifluoromethyl)-1H-pyrazol-1-yl]benzenesulfonamide] | –
3.3 | 19 | 20 | 190 | 198 | 165 | 10 | 67 | 30 | 0.009 | 0.115 | 0.51 | not detectable | 0.02 μg/cm^2 · h | Cc1onc(-c2ccccc2)c1-c1ccc(S(N)(=O)=O)cc1 [valdecoxib, 4-[5-methyl-3-phenylisoxazol-4-yl]benzenesulfonamide] | solubility ([5]; NMP:PEG 400 ratio 0:5, saturated at 80° C., cooled 24 hours at room temperature): 169 mg/g; solubility ([5]; NMP:PEG 400 ratio 5:0): 190 mg/g; solubility ([5]; NMP:PEG 400 ratio 5:1): 149 mg/g; solubility ([5]; NMP:PEG 400 ratio 5:2): 126 mg/g; solubility ([5]; NMP:PEG 400 ratio 5:3): 100 mg/g; solubility ([5]; NMP:PEG 400 ratio 5:4): 73 mg/g; solubility ([5]; NMP:PEG 400 ratio 5:5): 71 mg/g; solubility ([2]; in glycerol, room temperature): 1 mg/g; time at which amount of drug permeated reached a plateau ([4]; 1% in NMP, FIG. 4): about 4 hours
33.4 | – | – | – | – | – | – | – | – | – | – | – | – | – | CC(C(=O)O)c1cccc(C(=O)c2ccccc2)c1 (centres unmarked) [ketoprofen] | –
